The record followed here is patent US5407940A, “New ellipticine compounds” (priority 1992, dated 1995).

One series relates to L1210. The series can be described thus: Cytotoxicity, line L1210 (Microculture Tetrazolium Assay). The class given is cell-based, murine. As to conditions: for times more cytotoxic than adriamycin / times more cytotoxic than elliptinium acetate: L1210; for IC50: Mus musculus, L1210, 48 h, 2 days incubation, read-out: Cytotoxicity IC50, line L1210. An excerpt:
(§1) The cells are distributed on microplates and exposed to the cytotoxic compounds.

A further series has as its system colon 38. The series can be described thus: Anti-tumour activity against colon 38. The class given is in vivo, female B6D2F1 mice. To be noted: for median T/C (tumour volume): d2 and d9, d25. Here is the method:
Colon 38 (supplied by NCI, Frederick, USA) was inserted in the form of fragments by the subcutaneous route into female B6D2F1 mice. The compounds were administered by the i.v. route on d2 and d9 and the anti-tumour activity was determined on […] by measuring the tumour volume (T/C volume, %).

The next series relates to leukaemia P388. The series can be described thus: Anti-tumour activity against leukaemia P388 in vivo. As to conditions: for Survivors on d60/total no. of mice / T/C: intraperitoneal, day 1.
For a further series, the system named is KB-3-1. The series can be described thus: Cytotoxicity, sensitive line KB-3-1. The class given is cell-based. To be noted: Homo sapiens, KB 3-1, 96 h; 4 days incubation; read-out: Cytotoxicity IC50, sensitive KB-3-1.
Excerpt: as §1

Series [1] deals with KB-A1. As to conditions: KB-A1 vs KB-3-1.
The subject of a further series is P388. The series can be described thus: Cytotoxicity, sensitive line P388 (Microculture Tetrazolium Assay). The class given is cell-based, murine. As to conditions: Mus musculus, P388, 48 h; 2 days incubation; read-out: Cytotoxicity IC50, sensitive P388.
Excerpt: as §1

For series [2], the system named is KB-A1. The series can be described thus: cells. To be noted: Homo sapiens, KB-A1, 96 h, read-out: Cytotoxicity IC50, resistant KB-A1.
Series [3] concerns S1/tMDR. The series can be described thus: cells. As to conditions: Homo sapiens, 96 h, read-out: Cytotoxicity IC50, resistant S1/tMDR.
Series [4] relates to P388/VCR-20. The series can be described thus: cells. As to conditions: Mus musculus, P388, 48 h, read-out: Cytotoxicity IC50, resistant P388/VCR-20.
The test system of series [5] is P388/VCR-20. As to conditions: for resistance factor: P388/VCR-20 vs P388.
Series [6] has as its system S1/tMDR. To be noted: for resistance factor: S1/tMDR vs S1.
A further series has as its system S1. Briefly: Cytotoxicity, sensitive line S1. The series is classed as cell-based. To be noted: Homo sapiens, 96 h; 4 days incubation; read-out: Cytotoxicity IC50, sensitive S1.
Excerpt: as §1

Broadly, the T/C is the ratio of treated to control. `Cc1c2ccnc(C(=O)NCCCN(C)C)c2cc2c3cc(O)ccc3n(C)c12` [Example 2, 1-(N,N-Dimethylaminopropylaminocarbonyl)-5,6-dimethyl-9-hydroxy-6H-pyrido[4,3-b]carbazole]: the “times more cytotoxic than adriamycin” value in the series with L1210 was “approximately 9 times”. Further, the “times more cytotoxic than elliptinium acetate” value with L1210 is given as around 46 times. In addition, the IC50 is 4.3 nM in the series with L1210; 19 nM in the series with KB-3-1; 11 nM in the series on P388; 1220 nM in the series with KB-A1 [2]; 38 nM with S1/tMDR [3]; 38 nM with P388/VCR-20 [4]. Besides, the IC50 in the series on S1 came out at 57 nM. Further, the “T/C” value with colon 38 (20 mg/kg and above, i.v.) is 0%; with leukaemia P388 (5 mg/kg), 177%; with leukaemia P388 (10 mg/kg), 190%; with leukaemia P388 (20 mg/kg), 250%; with leukaemia P388 (30 mg/kg), 204%; in the series with leukaemia P388 (40 mg/kg), 219%. Also, the figures for the T/C in the series with leukaemia P388 (50 mg/kg) and in the series on leukaemia P388 (60 mg/kg) were 222% and 248%, respectively. Also, the “activity against that solid tumour (in words)” value in the series on colon 38 (20 mg/kg and above, i.v.) is recorded as “very active”. The “median T/C (tumour volume)” value with colon 38 (20 mg/kg, i.v.) was found to be 0%; in the series with colon 38 (40 mg/kg, i.v.), 0%; in the series with colon 38 (60 mg/kg, i.v.) it was 0%. Also, in the series on colon 38 (5-Fu at 80 mg/kg), the “activity relative to 5-fluorouracyle” value is reported as “as active as”. Moreover, the “Survivors on d60/total no. of mice” value is given as 0/10 in the series on leukaemia P388 (5 mg/kg); 0/10 in the series with leukaemia P388 (10 mg/kg); 3/10 with leukaemia P388 (20 mg/kg); 1/10 in the series on leukaemia P388 (30 mg/kg); 2/10 in the series with leukaemia P388 (40 mg/kg); 3/10 in the series on leukaemia P388 (50 mg/kg). The “Survivors on d60/total no. of mice” value in the series with leukaemia P388 (60 mg/kg) is on record as 3/10. Also, the resistance factor with KB-A1 [1] was 64; with P388/VCR-20 [5], 3,4; in the series with S1/tMDR [6], 0,7.

In the case of `COc1ccc2c(c1)c1cc3c(C(=O)NCCN(C)C)nccc3c(C)c1n2C` [Example 3, 1-(N,N-Dimethylaminoethylaminocarbonyl)-5,6-dimethyl-9-methoxy-6H-pyrido[4,3-b]carbazole], in the series on L1210, the IC50 amounted to 574 nM.

On to `COc1ccc2c(c1)c1cc3c(C(=O)NCCCN(C)C)nccc3c(C)c1n2C` [Example 4, 1-(N,N-Dimethylaminopropylaminocarbonyl)-5,6-dimethyl-9-methoxy-6H-pyrido[4,3-b]carbazole], for which the IC50 with L1210 was determined as 875 nM.

Turning to `COc1ccc2[nH]c3c(C)c4ccnc(C(=O)NCCCN(C)C)c4cc3c2c1` [Example 5, 1-(N,N-Dimethylaminopropylaminocarbonyl) -5-methyl-9-methoxy-6H-pyrido[4,3-b]carbazole], the IC50 in the series with L1210 was 1500 nM.

Regarding `O=c1[nH]cc(F)c(=O)[nH]1` [Example 5-Fu, 5-fluorouracyle, reference compound], the “median T/C (tumour volume)” value with colon 38 (80 mg/kg, i.v.) turned out to be 0%.

Take `Cc1c2ccnc(C(=O)NCCN(C)C)c2cc2c1[nH]c1ccc(O)cc12` [Example 6, 1-(N,N-Dimethylaminoethylaminocarbonyl)-5-methyl-9-hydroxy-6H-pyrido[4,3-b]carbazole]: the “times more cytotoxic than adriamycin” value in the series with L1210 was “approximately 9 times”. The “times more cytotoxic than elliptinium acetate” value with L1210 was around 46 times. Besides, the IC50 in the series with L1210 was 3.1 nM; with KB-3-1 it was 20 nM; in the series with P388 it was 19 nM; in the series on KB-A1 [2], 737 nM; in the series with S1/tMDR [3], 29 nM; in the series on P388/VCR-20 [4], 10 nM. Moreover, the IC50 with S1 came out at 42 nM. In addition, the “median T/C (tumour volume)” value with colon 38 (10 mg/kg, i.v.) worked out at 35%; in the series on colon 38 (20 mg/kg, i.v.), 22%; in the series on colon 38 (30 mg/kg, i.v.), 0%. The “Survivors on d60/total no. of mice” value with leukaemia P388 (5 mg/kg) is recorded as 4/10; with leukaemia P388 (10 mg/kg), 3/10; in the series on leukaemia P388 (20 mg/kg), 5/10; in the series with leukaemia P388 (30 mg/kg) it was 7/10. Also, the T/C is 280% in the series with leukaemia P388 (5 mg/kg), 233% in the series on leukaemia P388 (10 mg/kg), above 600% with leukaemia P388 (20 mg/kg) and above 600% in the series on leukaemia P388 (30 mg/kg). In addition, the “long-term survivors over all doses employed” value in the series with leukaemia P388 (all doses employed) is given as “all the doses employed giving long-term survivors”. The results for the resistance factor in the series on KB-A1 [1], with P388/VCR-20 [5] and in the series with S1/tMDR [6] were 37, 0,5 and 0,7, respectively. For the same molecule, in the series with P388/VCR-20 [5] (vs P388), the “sensitivity of resistant line P388/VCR-20 relative to corresponding sensitive line” value was “more sensitive”. The “sensitivity of resistant line S1/tMDR relative to corresponding sensitive line” value in the series on S1/tMDR [6] (vs S1) was “more sensitive”.

For the molecule `Cc1c2ccnc(C(=O)NCCCN(C)C)c2cc2c1[nH]c1ccc(O)cc12` [Example 7, 1-(N,N-Dimethylaminopropylaminocarbonyl)-5-methyl-9-hydroxy-6H-pyrido[4,3-b]carbazole], in the series on L1210, the IC50 is 41 nM.

With `COc1ccc2[nH]c3c(C)c4ccnc(C(=O)NCCN(C)C)c4cc3c2c1` [Example 8, 1-(N,N-Dimethylaminoethylaminocarbonyl)-5-methyl-9-methoxy-6H-pyrido[4,3-b]carbazole], in the series with L1210, the IC50 is 487 nM.

Consider `COc1ccc2[nH]c3c(C)c4ccnc(C(=O)NCCN5CCCC5)c4cc3c2c1` [Example 9, 1-[2-(Pyrrolidin-1-yl)ethylaminocarbonyl]-5-methyl-9-methoxy-6H-pyrido[4,3-b]carbazole], for which the IC50 with L1210 stood at 1500 nM.

With `Cc1c2ccnc(C(=O)NCCNCCO)c2cc2c3cc(O)ccc3n(C)c12` [Example 11, 1-{2-[(2-Hydroxyethyl)amino]ethylaminocarbonyl}-5,6-dimethyl-9-hydroxy-6H-pyrido [4,3-b]carbazole], the IC50 in the series with L1210 was determined as 29.7 nM.

With `Cc1c2ccnc(C(=O)NCCCCN)c2cc2c3cc(O)ccc3n(C)c12` [Example 12, 1-[(4-Aminobutyl)aminocarbonyl]-5,6-dimethyl-9-hydroxy-6H-pyrido[4,3-b]carbazole], the IC50 in the series on L1210 was found to be 450 nM.

As to `Cc1c2ccnc(C(=O)NCCN3CCCC3)c2cc2c3cc(O)ccc3n(C)c12` [Example 13, 1-[N-(2-Pyrrolidin-1-ylethyl)aminocarbonyl]-5,6-dimethyl-9-hydroxy-6H-pyrido[4,3-b]carbazole], the IC50 with L1210 came to 13.1 nM.

With `Cc1c2ccnc(C(=O)NCCCN3CCOCC3)c2cc2c3cc(O)ccc3n(C)c12` [Example 14, 1-[N-(3-Morpholinopropyl)aminocarbonyl]-5,6-dimethyl-9-hydroxy-6H-pyrido[4,3-b]carbazole], the IC50 in the series on L1210 was 10.4 nM.
